Values of other authors, collected in patent US9023417B2, “Use of a polyamine-poor composition for the production of a medical human food” (Univeriste de Rennes 1, priority 2003, dated 2015).

System: Escherischia coli

In the case of `C[C@](N)(CCCN)C(=O)O` [Alpha-methylornithine, alpha-methylornithine], the “inhibition of the synthesis of polyamines in Escherischia coli” value is given as “inhibiting the synthesis of polyamines”.
In the case of `NCCC[C@](N)(C(=O)O)C(F)F` [a-DFMO, 2-difluoromethylornithine], the “inhibition of the synthesis of polyamines in Escherischia coli” value is given as “not the case”.
